Experimental findings from US20250161286A1 (AEVIS BIO, INC., priority 2022, published 2025) are described below.

One assay relates to Aiolos and Ikaros. In words: Aiolos and Ikaros degradation by immunoblotting in MM.1S cells. It is filed as cell-based, human. The method, then: To this end, the MM.1S cell line was cultured in an RPMI medium (Corning, MD, USA) supplemented with 10% fetal bovine serum (Corning, MD, USA), 100 U/ml of penicillin (Corning, MD, USA), and 100 μg/ml of streptomycin (Corning, MD, USA) at 37° C. in a 5% CO2 incubator. […] The cells were disrupted by adding a RIPA buffer containing a protease inhibitor cocktail (Thermo Fisher Scientific) and centrifuged at 14,000 rpm for 15 minutes at 4° C. to obtain a cell extract. Equal amounts of the cell extract were loaded, and proteins were separated through SDS-PAGE and then transferred to a PVDF membrane. The protein-transferred membrane was blocked using skim milk, incubated with a primary antibody for 3 hours at room temperature, and then incubated with an HRP-conjugated secondary antibody for 1 hour at room temperature. The resulting product was washed with TBS-T three times between steps. Detection was performed using a chemoluminescence reagent (Thermo Fisher Scientific), and confirmed using Chemidoc (iBright CL1500, Invitrogen, CA, USA). Aiolos (#15103), Ikaros (#9034) and GAPDH (#2118S) antibodies used as primary antibodies and a secondary antibody were purchased from Cell Signaling Technology (Danvers, MA, USA).
Additionally, the expression of Aiolos and Ikaros, mediated by 3-MP, was confirmed over time. […]

Assay [1] has as its system mouse model with Parkinson's disease induced by MPTP administration. Kind of assay: Pillar test in MPTP-induced Parkinson's disease mouse model. The assay is classed as in vivo. As to conditions: MPTP mice, oral. The method, then:
To cause the disease, mice in the G2, G3, G4, and G5 groups were administered MPTP dissolved in saline via an intraperitoneal route at 2-hour intervals four times a day (20 mg/kg/time), while the G1 group received the same amount of saline.
Using a wooden pillar (length: 80 cm, diameter: 0.8˜1 cm) placed vertically on the cage floor, mice were trained to turn around from the top of the pillar in the opposite direction and descend to the bottom three times a day on days 2-3 of the test. On day 4 of the test, the same test was performed three times, and the time it took to change direction from the top and descend.

Structures are written as SMILES.

With `Nc1cccc2c1C(=S)N(C1CCC(=O)NC1=O)C2=O` (stereo not shown) [3-MP, 3-thiopomalidomide], in the assay with Aiolos and Ikaros (10 μM, 1, 4, 8, 12 or 24 hours), the “expression of Aiolos and Ikaros over time” value is “does not reduce the expression of Aiolos and Ikaros”. The “expression of Aiolos and Ikaros” value in the assay with Aiolos and Ikaros (0.000128-10 μM, 4 hours) is “does not reduce the expression of Aiolos and Ikaros”. Besides, the pillar descent time result in assay [1] (90 mg/kg) was “recovered to a level similar to that of the vehicle administration group”; in assay [1] (all doses (10, 30, 90 mg/kg/day), versus MPTP group) it was “reduced to a statistically significant level”.
